Columns and labels:
[1] = biological target: T1, Endothelin receptor type B (Homo sapiens, UniProt P24530); assay: Antagonist activity towards human recombinant Endothelin B receptor expressed in chinese hamster ovary (CHO) cells determined using [125I]ET1 as radioligand; type: functional, cell-based
T1 sequence (P24530 whole entry): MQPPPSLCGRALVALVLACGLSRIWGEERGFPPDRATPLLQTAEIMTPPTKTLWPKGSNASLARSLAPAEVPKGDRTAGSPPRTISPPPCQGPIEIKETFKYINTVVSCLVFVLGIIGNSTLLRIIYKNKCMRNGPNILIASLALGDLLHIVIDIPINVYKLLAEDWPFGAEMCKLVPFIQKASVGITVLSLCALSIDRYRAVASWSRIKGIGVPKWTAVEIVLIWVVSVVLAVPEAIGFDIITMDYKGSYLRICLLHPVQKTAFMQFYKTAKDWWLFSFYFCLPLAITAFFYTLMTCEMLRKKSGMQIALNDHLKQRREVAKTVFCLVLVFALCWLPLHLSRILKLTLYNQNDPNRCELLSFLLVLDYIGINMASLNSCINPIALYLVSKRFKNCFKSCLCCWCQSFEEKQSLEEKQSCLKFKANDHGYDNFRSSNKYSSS

Endothelin-1 receptor = biological target: T2, Endothelin-1 receptor (Homo sapiens, UniProt P25101); assay: Antagonist activity towards human recombinant Endothelin A receptor expressed in chinese hamster ovary (CHO) cells determined using [125I]ET1 as radioligand; type: functional, cell-based
T2 sequence (P25101 whole entry): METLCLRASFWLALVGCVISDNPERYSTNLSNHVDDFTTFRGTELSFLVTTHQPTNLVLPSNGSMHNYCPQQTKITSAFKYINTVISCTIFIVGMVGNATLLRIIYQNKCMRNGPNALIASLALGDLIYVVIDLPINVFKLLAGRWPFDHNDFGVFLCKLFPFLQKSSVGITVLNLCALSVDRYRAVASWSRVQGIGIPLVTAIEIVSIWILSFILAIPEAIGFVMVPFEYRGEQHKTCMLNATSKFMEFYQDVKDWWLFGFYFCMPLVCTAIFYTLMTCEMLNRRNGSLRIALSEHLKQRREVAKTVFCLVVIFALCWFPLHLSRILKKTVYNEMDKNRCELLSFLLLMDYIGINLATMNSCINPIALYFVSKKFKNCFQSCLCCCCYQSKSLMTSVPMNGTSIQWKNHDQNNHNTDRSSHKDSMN

Endothelin receptor = biological target: T3, Endothelin receptor (Rattus norvegicus, UniProt P26684+P21451); assay: Inhibitory potency at native endothelin A and endothelin B receptors by inhibiting endothelin-1 contractions of rat aortic rings; type: functional
T3 sequence (P26684 whole entry): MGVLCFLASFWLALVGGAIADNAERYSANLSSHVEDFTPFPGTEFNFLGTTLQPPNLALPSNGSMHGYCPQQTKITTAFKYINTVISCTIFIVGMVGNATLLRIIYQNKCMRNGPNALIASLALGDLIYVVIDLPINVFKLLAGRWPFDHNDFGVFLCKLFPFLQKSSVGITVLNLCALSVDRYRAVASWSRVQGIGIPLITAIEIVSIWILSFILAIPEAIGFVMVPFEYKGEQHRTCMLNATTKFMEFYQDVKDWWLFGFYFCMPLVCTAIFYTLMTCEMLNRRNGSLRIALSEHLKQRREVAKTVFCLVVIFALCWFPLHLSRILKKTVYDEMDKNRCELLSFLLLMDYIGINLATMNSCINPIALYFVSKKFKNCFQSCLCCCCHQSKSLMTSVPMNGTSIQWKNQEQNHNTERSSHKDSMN
T3 sequence (P21451 whole entry): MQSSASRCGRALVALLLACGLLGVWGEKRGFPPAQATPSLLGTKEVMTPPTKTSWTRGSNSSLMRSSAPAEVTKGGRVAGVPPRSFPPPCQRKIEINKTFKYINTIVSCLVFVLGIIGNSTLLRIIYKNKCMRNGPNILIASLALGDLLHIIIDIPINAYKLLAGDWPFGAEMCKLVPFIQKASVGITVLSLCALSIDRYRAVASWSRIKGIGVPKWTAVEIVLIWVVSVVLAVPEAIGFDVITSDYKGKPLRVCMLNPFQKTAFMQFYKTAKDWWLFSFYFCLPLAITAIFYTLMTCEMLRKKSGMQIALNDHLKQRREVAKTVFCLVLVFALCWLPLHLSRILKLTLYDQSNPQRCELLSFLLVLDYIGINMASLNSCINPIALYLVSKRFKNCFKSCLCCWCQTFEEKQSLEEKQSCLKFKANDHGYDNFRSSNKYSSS

Structure (SMILES) | IC50 [1] [nM] | IC50 (Endothelin-1 receptor) [nM] | pA2 (Endothelin receptor)
CSc1cnc(O[C@H](C(=O)O)[C@@]2(c3ccccc3)NCC(=O)N(C)c3ccccc32)nc1 (racemic) | > 10000 | 6600 | 
Cc1cc(C)nc(O[C@H](C(=O)O)[C@@]2(c3ccccc3)NCC(=O)N(Cc3ccc(F)cc3)c3ccccc32)n1 (racemic) | 49.7 | 5.9 | 7.46
COC(=O)c1ccc(CN2C(=O)CN[C@](c3ccccc3)([C@H](Oc3nc(C)cc(C)n3)C(=O)O)c3ccccc32)cc1 (racemic) | 70.3 | 7.4 | 6.98
COc1ccc(CN2C(=O)CN[C@](c3cccc(-c4ccccc4)c3)([C@H](Oc3nc(C)cc(C)n3)C(=O)O)c3ccccc32)cc1 (racemic) | 86.8 | 3 | 7.28
COc1ccc(CN2C(=O)CN[C@](c3cccc(OC)c3)([C@H](Oc3nc(C)cc(C)n3)C(=O)O)c3ccccc32)cc1 (racemic) | 94.3 | 10.2 | 
COc1ccc(CN2C(=O)CN[C@](c3ccccc3)([C@H](Oc3nc(C)cc(C)n3)C(=O)O)c3ccccc32)cc1 (racemic) | 22.4 |  | 7.08
CCc1cc(CC)nc(O[C@H](C(=O)O)[C@@]2(c3ccccc3)NCC(=O)N(C)c3ccccc32)n1 (racemic) | 654 | 20.5 | 
Cc1cc(C)nc(O[C@H](C(=O)O)[C@@]2(c3ccccc3)NCC(=O)N(Cc3cccc(Cl)c3)c3ccccc32)n1 (racemic) | 21.4 | 5.8 | 
COc1ccc(CN2C(=O)CN[C@](C3CCCCC3)([C@H](Oc3nc(C)cc(C)n3)C(=O)O)c3ccccc32)cc1 (racemic) | 105 | 112 | 
Cc1cc(C)nc(O[C@H](C(=O)O)[C@@]2(c3ccccc3)NCC(=O)N(CCO)c3ccccc32)n1 (racemic) | 108 | 6.9 | 6.79
Cc1cc(C)nc(O[C@H](C(=O)O)[C@@]2(c3ccccc3)NCC(=O)N(Cc3c(F)cccc3F)c3ccccc32)n1 (racemic) | 17.7 | 1.1 | 7.83
CCCCC[C@]1([C@H](Oc2nc(C)cc(C)n2)C(=O)O)NCC(=O)N(Cc2ccc(OC)cc2)c2ccccc21 (racemic) | 73.6 | 355 | 
Cc1cc(C)nc(O[C@H](C(=O)O)[C@@]2(c3ccccc3)NCc3c(C(=O)O)nc(C)n3-c3ccccc32)n1 (racemic) | 711 | 604 | 
Cc1cc(C)nc(O[C@H](C(=O)O)[C@@]2(c3ccccc3)NCC(=O)N(Cc3c(Cl)cccc3Cl)c3ccccc32)n1 (racemic) | 6.6 | 1.8 | 8.55
CCCCc1ccc(CN2C(=O)CN[C@](c3ccccc3)([C@H](Oc3nc(C)cc(C)n3)C(=O)O)c3ccccc32)cc1 (racemic) | 11.1 | 3.5 | 7.84
Cc1cc(C)nc(O[C@H](C(=O)O)[C@@]2(c3ccccc3)NCC(=O)N(Cc3cc(F)c(F)cc3F)c3ccccc32)n1 (racemic) | 72.7 | 7.2 | 
Cc1cc(C)nc(O[C@H](C(=O)O)[C@@]2(c3ccccc3)NCC(=O)N(Cc3ccc(F)c(F)c3)c3ccccc32)n1 (racemic) | 32.8 | 6.5 | 
Cc1cc(C)nc(O[C@H](C(=O)O)[C@@]2(c3ccccc3)NCC(=O)N(Cc3c(F)cccc3Cl)c3ccccc32)n1 (racemic) | 10.9 |  | 7.8
Cc1cc(C)nc(O[C@H](C(=O)O)[C@@]2(c3ccccc3)NCC(=O)N(Cc3ccc(OC(F)(F)F)cc3)c3ccccc32)n1 (racemic) | 32.2 | 2.5 | 7.59

Structure (SMILES) | IC50 [1] [nM] | IC50 (Endothelin-1 receptor) [nM] | pA2 (Endothelin receptor)
Cc1cc(C)nc(O[C@H](C(=O)O)[C@@]2(c3ccccc3)NCC(=O)N(Cc3ccc(C(F)(F)F)cc3)c3ccccc32)n1 (racemic) | 47.1 | 17 | 
Cc1cc(C)nc(O[C@H](C(=O)O)[C@@]2(c3ccccc3)NCC(=O)N(Cc3ccc(-c4ccccc4)cc3)c3ccccc32)n1 (racemic) | 534 | 102 | 
Cc1cc(C)nc(O[C@H](C(=O)O)[C@@]2(c3ccccc3)NCC(=O)N(Cc3c(F)ccc(F)c3F)c3ccccc32)n1 (racemic) | 13.2 | 2.4 | 8.38
COc1cccc(O[C@H](C(=O)O)[C@@]2(c3ccccc3)NCC(=O)N(Cc3c(Cl)cccc3Cl)c3ccccc32)c1 (racemic) | 1470 | 129 | 
Cc1ccc(O[C@H](C(=O)O)[C@@]2(c3ccccc3)NCC(=O)N(Cc3c(Cl)cccc3Cl)c3ccccc32)cc1 (racemic) | 966 | 156 | 
Cc1cc(C)nc(O[C@H](C(=O)O)[C@@]2(c3ccccc3)NCC(=O)N(CCC3CCCCC3)c3ccccc32)n1 (racemic) | 153 | 146 | 
Cc1cc(C)nc(O[C@H](C(=O)O)[C@@]2(c3ccccc3)NCC(=O)N(Cc3cc(F)c(F)c(F)c3)c3ccccc32)n1 (racemic) | 25.3 | 11.8 | 
Cc1cccc(O[C@H](C(=O)O)[C@@]2(c3ccccc3)NCC(=O)N(Cc3c(Cl)cccc3Cl)c3ccccc32)c1 (racemic) | 745 | 29 | 
CCCCCCN1C(=O)CN[C@](c2ccccc2)([C@H](Oc2nc(C)cc(C)n2)C(=O)O)c2ccccc21 (racemic) | 39.9 | 23.7 | 6.71
COc1ccc(CN2C(=O)CN[C@](c3ccc(F)c(C)c3)([C@H](Oc3nc(C)cc(C)n3)C(=O)O)c3ccccc32)cc1 (racemic) | 33.2 | 7.3 | 6.53
Cc1cc(C)nc(O[C@H](C(=O)O)[C@@]2(c3ccccc3)NCC(=O)N(Cc3nn[nH]n3)c3ccccc32)n1 (racemic) | 65.6 | 6.6 | 6.99
Cc1cc(C)nc(O[C@H](C(=O)O)[C@@]2(c3ccccc3)NCC(=O)N(Cc3ccccc3)c3ccccc32)n1 (racemic) | 47.4 | 6.4 | 7.32
COc1cc(OC)cc(O[C@H](C(=O)O)[C@@]2(c3ccccc3)NCC(=O)N(C)c3ccc(Cl)cc32)c1 (racemic) | 1810 | 262 | 
Cc1cc(C)nc(O[C@H](C(=O)O)[C@@]2(c3ccccc3)NCC(=O)N(CCc3ccccc3)c3ccccc32)n1 (racemic) | 21.5 | 3.9 | 7.46
Cc1cc(C)nc(O[C@H](C(=O)O)[C@@]2(c3ccccc3)NCC(=O)N(CCN3CCOCC3)c3ccccc32)n1 (racemic) | 743 | 126 | 
COc1ccc(CN2C(=O)CN[C@](c3cccc(Cl)c3)([C@H](Oc3nc(C)cc(C)n3)C(=O)O)c3ccccc32)cc1 (racemic) | 78.2 | 25 | 
Cc1cc(C)nc(O[C@H](C(=O)O)[C@@]2(c3ccccc3)NCC(=O)N(Cc3ccccc3OC(F)(F)F)c3ccccc32)n1 (racemic) | 74.9 | 98.6 | 
Cc1cc(C)nc(O[C@H](C(=O)O)[C@@]2(c3ccccc3)NCC(=O)N(Cc3ccccc3F)c3ccccc32)n1 (racemic) | 33.1 | 3.5 | 7.22
CCc1cccc([C@]2([C@H](Oc3nc(C)cc(C)n3)C(=O)O)NCC(=O)N(Cc3ccc(OC)cc3)c3ccccc32)c1 (racemic) | 68 | 3.1 | 7.55
